What was measured:
surinam grass = experiment: Test D surinam grass; assay type: in vivo, Brachiaria decumbens; conditions: Postemergence, 0 to 100 scale
Green foxtail [1] = experiment: Test D green foxtail; assay type: in vivo; conditions: Postemergence, 0 to 100 scale, 0 no injury, 100 complete control
Johnson grass [2] = experiment: Test D Johnson grass; assay type: in vivo, Sorghum halepense; conditions: Postemergence, 0 to 100 scale
bermuda-grass = experiment: Test D bermudagrass; assay type: in vivo, Cynodon dactylon; conditions: Postemergence, 0 to 100 scale
common ragweed = experiment: Test D common ragweed; assay type: in vivo, Ambrosia elatior; conditions: Postemergence, 0 to 100 scale
Alexandergrass [3] = experiment: Test D Alexandergrass; assay type: in vivo, Brachiaria plantaginea; conditions: Postemergence, 0 to 100 scale
large crabgrass [4] = experiment: Test D large crabgrass; assay type: in vivo, Digitaria sanguinalis; conditions: Postemergence, 0 to 100 scale
guineagrass [5] = experiment: Test D guineagrass; assay type: in vivo, Panicum maximum; conditions: Postemergence, 0 to 100 scale
Green foxtail [6] = experiment: Test D green foxtail; assay type: in vivo; conditions: Rate 250 g/ha; Postemergence; 0 to 100 scale
sandbur [7] = experiment: Test D sandbur; assay type: in vivo, Cenchrus echinatus; conditions: Postemergence, 0 to 100 scale
common pursiane [8] = experiment: Test D common purslane; assay type: in vivo, Portulaca oleracea; conditions: Postemergence, 0 to 100 scale
large crabgrass [9] = experiment: Test D large crabgrass; assay type: in vivo, Digitaria sanguinalis; conditions: Preemergence, 0 to 100 scale
From the text: (§1) Seeds, tubers, or plant parts of Alexandergrass (Brachiaria plantaginea), bermuda-grass (Cynodon dactylon), common pursiane (Portulaca oleracea), common ragweed (Ambrosia elatior), common groundsel (Senecio vulgaris), dallisgrass (Paspalum dilatatum), goosegrass (Eleusine indica), guineagrass (Panicum maximum), itchgrass (Rottboellia exaltata), Johnson grass (Sorghum halepense), large crabgrass (Digitaria sanguinalis), pitted morningglory (Ipomoea lacunosa), purple nutsedge (Cyperus rotundus), sandbur (Cenchrus echinatus), sourgrass (Trichachne insularis), Spanishneedles (Bidens bipinnata), surinam grass (Brachiaria decumbens) and tall mallow (Malva sylvestris) were planted into greenhouse pots of flats containing greenhouse planting medium. Plant species were grown in separate pots or individual compartments. Preemergence applications were made within one day of planting the seed or plant part.
(§2) Test chemicals were formulated in a non-phytotoxic solvent mixture which included a surfactant and applied preemergence to the surface of the pot containing seeds in a sandy loam soil. Untreated control pots and treated pots were placed in the greenhouse for growth and visually evaluated for injury 14 to 21 days after herbicide application. Plant response ratings, summarized in Table C, are based on a 0 to 100 scale where 0 is no injury and 100 is complete control. A dash (−) response means no test result.

common groundsel = experiment: Test D common groundsel; assay type: in vivo, Senecio vulgaris; conditions: Preemergence, 0 to 100 scale
Procedure, shortened: (§3)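 Scoring used a 0–100 visual injury scale, with 0 meaning no effect and 100 complete control, assessed 14–21 days after application alongside untreated pots. Preemergence treatments went onto sandy loam surfaces of separately potted seeds within a day of sowing.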

pitted morningglory = experiment: Test D pitted morningglory; assay type: in vivo, Ipomoea lacunosa; conditions: Preemergence, 0 to 100 scale
From the text: as §1
as §2, with “Plant response ratings, summarized in Table C, are based on a 0 to 100 scale where 0 is no injury and 100 is complete control.” left out

sandbur [10] = experiment: Test D sandbur; assay type: in vivo, Cenchrus echinatus; conditions: Preemergence, 0 to 100 scale
From the text: as §1, §2

Alexandergrass [11] = experiment: Test D Alexandergrass; assay type: in vivo, Brachiaria plantaginea; conditions: Preemergence, 0 to 100 scale
From the text: as §1, §2

Johnson grass [12] = experiment: Test D Johnson grass; assay type: in vivo, Sorghum halepense; conditions: Preemergence, 0 to 100 scale
Procedure, shortened: as §3

purple nutsedge = experiment: Test D purple nutsedge; assay type: in vivo, Cyperus rotundus; conditions: Preemergence, 0 to 100 scale
From the text: as §1, §2

tall mallow = experiment: Test D tall mallow; assay type: in vivo, Malva sylvestris; conditions: Preemergence, 0 to 100 scale
From the text: as §1, §2

common pursiane [13] = experiment: Test D common purslane; assay type: in vivo, Portulaca oleracea; conditions: Preemergence, 0 to 100 scale
Procedure, shortened: as §3

guineagrass [14] = experiment: Test D guineagrass; assay type: in vivo, Panicum maximum; conditions: Preemergence, 0 to 100 scale
Procedure, shortened: as §3

[15] = Rate 16 g/ha, 0 no injury, 100 complete control
[16] = Rate 32 g/ha, 0 no injury, 100 complete control
[17] = Rate 64 g/ha, 0 no injury, 100 complete control
[18] = Rate 125 g/ha, 0 no injury, 100 complete control

COCC(C)n1c(=O)on(C(=O)N(c2ccc(F)cc2F)C(C)C)c1=O (centres unmarked) [Compound 352]
Plant response rating, Surinam grass (surinam grass; [15]): 0
Plant response rating, Surinam grass (surinam grass; [16]): 0
Surinam grass plant response rating (surinam grass; [17]): 30
Surinam grass plant response rating (surinam grass; [18]): 70
Plant response rating, Surinam grass (surinam grass; Rate 250 g/ha): 100
Plant response rating, Green foxtail (Green foxtail [1]; Rate 16 g/ha): 0
Plant response rating, Green foxtail (Green foxtail [1]; Rate 32 g/ha): 100
Plant response rating Johnsongrass (Johnson grass [2]; [15]): 0
Plant response rating Johnsongrass (Johnson grass [2]; [16]): 0
Plant response rating Johnsongrass (Johnson grass [2]; [17]): 0
Plant response rating Johnsongrass (Johnson grass [2]; [18]): 40
Plant response rating Johnsongrass (Johnson grass [2]; Rate 250 g/ha): 80
Plant response rating, Bermudagrass (bermuda-grass; [15]): 0
Plant response rating, Bermudagrass (bermuda-grass; [16]): 80
Plant response rating, Bermudagrass (bermuda-grass; [17]): 100
Plant response rating, Bermudagrass (bermuda-grass; [18]): 100
Plant response rating, Bermudagrass (bermuda-grass; Rate 250 g/ha): 100
Plant response rating, C. ragweed (common ragweed; [15]): 0
Plant response rating, C. ragweed (common ragweed; [16]): 0
Plant response rating, C. ragweed (common ragweed; [17]): 20
Plant response rating, C. ragweed (common ragweed; [18]): 20
Plant response rating, C. ragweed (common ragweed; Rate 250 g/ha): 100
Plant response rating, Alexandergrass (Alexandergrass [3]; [15]): 0
Plant response rating, Alexandergrass (Alexandergrass [3]; [16]): 60
Plant response rating, Alexandergrass (Alexandergrass [3]; [17]): 80
Plant response rating, Alexandergrass (Alexandergrass [3]; [18]): 100
Plant response rating, Alexandergrass (Alexandergrass [3]; Rate 250 g/ha): 100
Plant response rating Large crabgrass (large crabgrass [4]; [15]): 0
Plant response rating Large crabgrass (large crabgrass [4]; [16]): 100
Plant response rating Large crabgrass (large crabgrass [4]; [17]): 100
Plant response rating Large crabgrass (large crabgrass [4]; [18]): 100
Plant response rating Large crabgrass (large crabgrass [4]; Rate 250 g/ha): 100
Plant response rating, Guineagrass (guineagrass [5]; [15]): 0
Plant response rating, Guineagrass (guineagrass [5]; [16]): 0
Guineagrass plant response rating (guineagrass [5]; [17]): 20
Plant response rating, Guineagrass (guineagrass [5]; [17]): 60
Plant response rating, Guineagrass (guineagrass [5]; [18]): 80
Plant response rating, Guineagrass (guineagrass [5]; Rate 250 g/ha): 100
Plant response rating, Green foxtail (Green foxtail [6]): 100
Plant response rating, Sandbur (sandbur [7]; [15]): 0
Plant response rating, Sandbur (sandbur [7]; [16]): 90
Sandbur plant response rating (sandbur [7]; [17]): 70
Sandbur plant response rating (sandbur [7]; [18]): 100
Plant response rating, Sandbur (sandbur [7]; Rate 250 g/ha): 100
Plant response rating, C. purslane (common pursiane [8]; [15]): 0
Plant response rating, C. purslane (common pursiane [8]; [16]): 0
Plant response rating, C. purslane (common pursiane [8]; [17]): 0
Plant response rating, C. purslane (common pursiane [8]; [18]): 0
Plant response rating, C. purslane (common pursiane [8]; Rate 250 g/ha): 0

Cc1cccc(C)c1-n1c(=O)on(C(=O)N(c2ccc(F)cc2F)C(C)C)c1=O [Compound 28]
Plant response rating Large crabgrass (large crabgrass [9]; [16]): 85
Plant response rating Large crabgrass (large crabgrass [9]; [17]): 98
Plant response rating Large crabgrass (large crabgrass [9]; [18]): 100
Plant response rating Large crabgrass (large crabgrass [9]; Rate 250 g/ha): 100
Plant response rating, Com. groundsel (common groundsel; [16]): 0
Plant response rating, Com. groundsel (common groundsel; [17]): 0
Plant response rating, Com. groundsel (common groundsel; [18]): 0
Plant response rating, Com. groundsel (common groundsel; Rate 250 g/ha): 0
Plant response rating, P. morninglory (pitted morningglory; [16]): 0
Plant response rating, P. morninglory (pitted morningglory; [17]): 0
Plant response rating, P. morninglory (pitted morningglory; [18]): 0
Plant response rating, P. morninglory (pitted morningglory; Rate 250 g/ha): 0
Plant response rating, Sandbur (sandbur [10]; [16]): 0
Sandbur plant response rating (sandbur [10]; [17]): 0
Sandbur plant response rating (sandbur [10]; [18]): 0
Plant response rating, Sandbur (sandbur [10]; Rate 250 g/ha): 0
Plant response rating, Alexandergrass (Alexandergrass [11]; [16]): 0
Plant response rating, Alexandergrass (Alexandergrass [11]; [17]): 0
Plant response rating, Alexandergrass (Alexandergrass [11]; [18]): 60
Plant response rating, Alexandergrass (Alexandergrass [11]; Rate 250 g/ha): 75
Plant response rating Johnsongrass (Johnson grass [12]; [16]): 0
Plant response rating Johnsongrass (Johnson grass [12]; [17]): 0
Plant response rating Johnsongrass (Johnson grass [12]; [18]): 0
Plant response rating Johnsongrass (Johnson grass [12]; Rate 250 g/ha): 0
Plant response rating, Purple nutsedge (purple nutsedge; [16]): 0
Purple nutsedge plant response rating (purple nutsedge; [17]): 0
Purple nutsedge plant response rating (purple nutsedge; [18]): 0
Plant response rating, Purple nutsedge (purple nutsedge; Rate 250 g/ha): 0
Plant response rating, Tall Mallow (tall mallow; [16]): 0
Tall Mallow plant response rating (tall mallow; [17]): 0
Tall Mallow plant response rating (tall mallow; [18]): 0
Plant response rating, Tall Mallow (tall mallow; Rate 250 g/ha): 0
Plant response rating, C. purslane (common pursiane [13]; [16]): 0
Plant response rating, C. purslane (common pursiane [13]; [17]): 0
Plant response rating, C. purslane (common pursiane [13]; [18]): 0
Plant response rating, C. purslane (common pursiane [13]; Rate 250 g/ha): 0
Plant response rating, Guineagrass (guineagrass [14]; [16]): 40
Plant response rating, Guineagrass (guineagrass [14]; [17]): 65
Plant response rating, Guineagrass (guineagrass [14]; [18]): 75
Plant response rating, Guineagrass (guineagrass [14]; Rate 250 g/ha): 98
